Here are results for 20 molecules from US8623862B2, “Derivatives of N-[(1H-pyrazol-1-yl)aryl]-1H-indole or 1H-indazole-3-carboxamide, preparation thereof and applications thereof in therapeutics” (Sanofi, priority 2011, dated 2014).

Each structure is given as a SMILES string. Counter-ions that a name gives are not always drawn. Like-named read-outs stand apart in the source and are kept apart here.

Series [1] deals with platelet aggregation. The series can be described thus: Inhibition of platelet aggregation in vitro (rat blood).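 Also: aggregation induced by ADP added as 4 µL of a 250 µM solution.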 Type of series: cell-based. Conditions: read-out: Inhibition of platelet aggregation in vitro (rat blood). The essentials: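 Platelet-rich plasma from male Sprague-Dawley rats (250-300 g), prepared by centrifugation at 300 g for 5 minutes. Aggregation measured at 37° C in an aggregometer. Percentage inhibition derived from area under the absorbance curve over 6 minutes.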

Series [2] has as its system platelet aggregation. The series is described as follows: Inhibition of platelet aggregation ex vivo (rat blood). To be noted: rat, 10 mg/kg, two hours before taking the sample; for inhibition at 10 mg/kg: Platelet, 2 h, read-out: Inhibition of platelet aggregation ex vivo (rat blood) in %, Gavage (oral) 10 mg/kg; for inhibition at 10 mg/kg / Inhibition of platelet aggregation ex vivo (rat blood) in %, Gavage (oral) 10 mg/kg: gavage (oral). Format: in vivo. The method, then: Inhibition of Platelet Aggregation Ex Vivo (Rat Blood)
Male rats of the Sprague-Dawley strain, weighing 250-300 g, are used at a rate of 6 animals per batch. Each test compound is diluted in a solution of glucose-containing water (glucose 5%) containing 5% of cremophore and 3% of glycofurol.
The compounds according to the invention are administered by stomach tube (10 ml/kg at 1 mg/ml) two hours before taking the sample or by infusion (1 ml/kg at 10 mg/ml) two hours before taking the sample.
The platelet-rich plasma (PRP) is obtained by centrifugation of the blood at 300 g for 5 minutes, and the measurements of platelet aggregation are performed as described above.
The results are calculated using the area under the curve of absorbance measured for 6 minutes, and expressed as percentage (%) of inhibition.

Setting [3] is: 0.1 h, rat platelet-rich plasma, ADP-induced aggregation, area under the curve of absorbance for 6 minutes.

By melting point is commonly meant the temperature of the solid-liquid transition. Turning to `CCCC(=O)c1cnn(-c2ccc(NC(=O)c3cn(CC(=O)N4CC(C)N(CCOC)C(C)C4)c4ccc(Cl)cc34)cc2)c1C.Cl` (stereo not drawn), the melting point stood at 187 °C.
For the molecule `CCCC(=O)c1cnn(-c2ccc(NC(=O)c3cn(CC(=O)N4CCN(CCOC)CC4)c4ccc(Cl)cc34)cc2)c1C` [Compound 105, N-[4-(4-Butyryl-5-methyl-1H-pyrazol-1-yl)phenyl]-5-chloro-1-{2-[4-(2-methoxyethyl)piperazin-1-yl]-2-oxoethyl}-1H-indole-3-carboxamide hydrochloride], the IC50 with platelet aggregation [1] (Platelet, rat blood, in vitro) was found to be 0.32 µM. The inhibition at 10 mg/kg in the series with platelet aggregation [2] stood at 67.9%.
For `CCCC(=O)c1cnn(-c2ccc(NC(=O)c3cn(CC(=O)N4CCN(C)CC4)c4cc(C)c(C)cc34)cc2)c1C.Cl` [Compound 107], the IC50 in the series on platelet aggregation [1] (rat blood, in vitro) is 0.3 µM. In the series on platelet aggregation [2], the “Inhibition of platelet aggregation ex vivo (rat blood) in %, Gavage (oral) 10 mg/kg” value (“Inhibition … in %, Gavage (oral) 10 mg/kg” for short) was 36.8% and the “Inhibition of platelet aggregation ex vivo (rat blood) in %, Infusion (Intravenous) 10 mg/kg” value is on record as 57.8%.
Consider `CCCC(=O)c1cnn(-c2ccc(NC(=O)c3cn(CC(=O)N4CCN(C)CC4)c4ccc(Cl)cc34)cc2)c1C.Cl` [Compound 115], for which the IC50 in the series with platelet aggregation [1] (rat blood, in vitro) is 0.32 µM. For the same molecule, in the series on platelet aggregation [2], the “Inhibition … in %, Gavage (oral) 10 mg/kg” value came to 50.6% and the “Inhibition of platelet aggregation ex vivo (rat blood) in %, Infusion (Intravenous) 10 mg/kg” value was 78.2%.
For `CCCC(=O)c1cnn(-c2ccc(NC(=O)c3cn(CC(=O)N4CCN(CCOC)CC4)c4ccc(C)cc34)cc2)c1C.Cl` [Compound 119], in the series on platelet aggregation [1] (rat blood, in vitro), the IC50 was 0.18 µM. Besides, the “Inhibition … in %, Gavage (oral) 10 mg/kg” value in the series with platelet aggregation [2] was determined as 61.1%.
As for `CCCC(=O)c1cnn(-c2ccc(NC(=O)c3cn(CC(=O)N4CCN(CCF)CC4)c4ccc(C)cc34)cc2)c1C.Cl` [Compound 133], the IC50 with platelet aggregation [1] (rat blood, in vitro) was determined as 0.32 µM. Further, the “Inhibition … in %, Gavage (oral) 10 mg/kg” value in the series with platelet aggregation [2] worked out at 74.2%.
Take `CCCC(=O)c1cnn(-c2ccc(NC(=O)c3cn(CC(=O)N4CCN(CCF)CC4)c4ccc(Cl)cc34)cc2)c1C.Cl` [Compound 142]: the IC50 in the series with platelet aggregation [1] (rat blood, in vitro) turned out to be 0.13 µM. Also, in the series with platelet aggregation [2], the “Inhibition … in %, Gavage (oral) 10 mg/kg” value is recorded as 76.5%.
For `CCCC(=O)c1cnn(-c2ccc(NC(=O)c3cn(CC(=O)N4CCN(CCOCCOC)CC4)c4ccc(Cl)cc34)cc2)c1C.Cl` [Compound 145], in that order: 0.25 µM and 53.7%.
For `CCCC(=O)c1cnn(-c2ccc(NC(=O)c3cn(CC(=O)N4CCN(Cc5ccc(F)cc5)CC4)c4ccc(C)cc34)cc2)c1C.Cl` [Compound 147] the same measures were 0.19 µM and 74.9%.
`CCCC(=O)c1cnn(-c2ccc(NC(=O)c3cn(CC(=O)N4CCCC4C(F)(F)F)c4ccc(Cl)cc34)cc2)c1C` (stereo not drawn) [Compound 170]: the IC50 in the series with platelet aggregation [1] (rat blood, in vitro) is 0.12 µM. For the same molecule, the “Inhibition … in %, Gavage (oral) 10 mg/kg” value in the series with platelet aggregation [2] amounted to 71.5%.
Turning to `CCCC(=O)c1cnn(-c2ccc(NC(=O)c3cn(CC(=O)N4CCN(C)CC4C)c4ccc(Cl)cc34)cc2)c1C.Cl` (stereo not drawn) [Compound 177], the IC50 in the series on platelet aggregation [1] (rat blood, in vitro) was found to be 0.37 µM. Also, in the series on platelet aggregation [2], the “Inhibition … in %, Gavage (oral) 10 mg/kg” value is 63.9%.
For `CCCC(=O)c1cnn(-c2ccc(NC(=O)c3cn(CC(=O)N4CCN(C(C)COC)CC4)c4ccc(Cl)cc34)cc2)c1C.Cl` (stereo not drawn) [Compound 179] the same measures were 0.17 µM and 76.1%.
With `CCCC(=O)c1cnn(-c2ccc(NC(=O)c3cn(CC(=O)N4CCN(C(C)(C)COC)CC4)c4ccc(Cl)cc34)cc2)c1C.Cl` [Compound 180], the IC50 in the series with platelet aggregation [1] (rat blood, in vitro) was found to be 0.24 µM. Besides, in the series with platelet aggregation [2], the “Inhibition … in %, Gavage (oral) 10 mg/kg” value is given as 65.1%.
On to `CCCC(=O)c1cnn(-c2ccc(NC(=O)c3cn(CC(=O)N4CCN(C)CC4)c4ccc(Cl)cc34)c(C#N)c2)c1C` [Compound 219], for which, in the series with platelet aggregation [1] (rat blood, in vitro), the IC50 stood at 0.54 µM. Further, in the series on platelet aggregation [2], the “Inhibition … in %, Gavage (oral) 10 mg/kg” value is given as 65.1%.
Consider `CCCC(=O)c1cnn(-c2ccc(NC(=O)c3cn(CC(=O)N4CC(C)N(C)C(C)C4)c4ccc(Cl)cc34)cc2)c1C.Cl` (stereo not drawn) [Compound 262, N-[4-(4-Butyryl-5-methyl-1H-pyrazol-1-yl)phenyl]-5-chloro-1-[2-oxo-2-(3,4,5-trimethylpiperazin-1-yl)ethyl]-1H-indole-3-carboxamide hydrochloride], for which the melting point came to 217 °C. Besides, in the series with platelet aggregation [2], the inhibition at 10 mg/kg stood at 58.8%.
As for `CCCC(=O)c1cnn(-c2ccc(NC(=O)c3cn(CC(=O)N4CCN(C)C(C(=O)NC)C4)c4ccc(Cl)cc34)cc2)c1C` (stereo not drawn) [Compound 272, N-[4-(4-butyryl-5-methyl-1H-pyrazol-1-yl)phenyl]-5-chloro-1-{2-[4-methyl-3-(methylcarbamoyl)piperazin-1-yl]-2-oxoethyl}-1H-indole-3-carboxamide], the melting point is 274 °C. Further, in the series with platelet aggregation [1] (setting [3]), the IC50 was determined as 0.21 µM.
For `CCCC(=O)c1cnn(-c2ccc(NC(=O)c3cn(CC(=O)N4CCN5CCNC(=O)C5C4)c4ccc(Cl)cc34)cc2)c1C.Cl` (stereo not drawn) [Compound 273, N-[4-(4-Butyryl-5-methyl-1H-pyrazol-1-yl)phenyl]-5-chloro-1-[2-oxo-2-(9-oxooctahydro-2H-pyrazino[1,2-a]pyrazin-2-yl)ethyl]-1H-indole-3-carboxamide hydrochloride] the same measures were 230 °C and 0.29 µM.
Take `CCCC(=O)c1cnn(-c2ccc(NC(=O)c3cn(CC(=O)N4CCN5CCN(C)C(=O)C5C4)c4ccc(Cl)cc34)cc2)c1C` (stereo not drawn) [Compound 274, N-[4-(4-Butyryl-5-methyl-1H-pyrazol-1-yl)phenyl]-5-chloro-1-[2-(8-methyl-9-oxooctahydro-2H-pyrazino[1,2-a]pyrazin-2-yl)-2-oxoethyl]-1H-indole-3-carboxamide hydrochloride]: the IC50 in the series with platelet aggregation [1] (setting [3]) worked out at 0.1 µM. Besides, in the series with platelet aggregation [2], the inhibition at 10 mg/kg stood at 82.7%.
On to `CCCC(=O)c1cnn(-c2ccc(NC(=O)c3cn(CC(=O)N4CCN(CCOC(C)=O)CC4)c4ccc(Cl)cc34)cc2)c1C.Cl` [Compound 275, 2-{4-[(3-{[4-(4-Butyryl-5-methyl-1H-pyrazol-1-yl)phenyl]carbamoyl}-5-chloro-1H-indol-1-yl)acetyl]piperazin-1-yl}ethyl acetate hydrochloride], for which the melting point came out at 160 °C. Moreover, the IC50 in the series on platelet aggregation [1] (setting [3]) amounted to 0.2 µM.
Molecule `CCCC(=O)c1cnn(-c2ccc(NC(=O)c3cn(CC(=O)N4CCN(CC(C)=O)CC4)c4ccc(Cl)cc34)cc2)c1C.Cl` [Compound 276, N-[4-(4-Butyryl-5-methyl-1H-pyrazol-1-yl)phenyl]-5-chloro-1-{2-oxo-2-[4-(2-oxopropyl)piperazin-1-yl]ethyl}-1H-indole-3-carboxamide hydrochloride] had a melting point of 248 °C. In addition, the IC50 in the series with platelet aggregation [1] (setting [3]) was determined as 0.22 µM. The inhibition at 10 mg/kg with platelet aggregation [2] is 49.9%.
